Measurements published in patent US6660742B2, “Compositions and methods of the use thereof achiral analogues of CC-1065 and the duocarmycins” (priority 2000, dated 2003).
Read-outs that look alike come from different tables or passages of the source.

What was measured:
[1] = test system: plasmid pBR322 DNA; test: Taq polymerase stop assay; format: biochemical
[2] = test system: K562 human chronic myeloid leukemia cells; test: MTT cytotoxicity on K562 cells; format: cell-based
[3] = test system: mouse L1210 leukemia cells; settings: cited from earlier work; for IC50 values (range in words): growth of mouse L1210 leukemia cells in culture
[4] = mice; therapeutic doses; cited from earlier work
[5] = test system: human colon adenocarcinoma cell line, LS 174T; test: SRB cytotoxicity on LS174T cells; format: cell-based
Procedure: Cells were seeded in 96-well microtiter plates at densities of 1000 cells/well. The optimal seeding density was determined to ensure exponential growth in control wells throughout the experimental period and to obtain a linear relationship between absorbance at 492 nm and cell number when analyzed by the sulforhodamine B (SRB) assay (43). 24 hours after seeding the cells were incubated for 1 hour or continuously for 3 days with the drugs (concentration range 0.01 to 500 μM). The cells were washed once and then incubated in drug free medium for 6 days. At the end of the incubation cell growth was determined by the SRB assay, which quantifies viable cells by measuring their total cellular protein content. […] Similar studies were conducted against the growth of PC3 (human prostate cancer cells) and MCF-7 (human breast cancer cells).

[6] = test system: L1210 leukemia cells; test: MTT cytotoxicity on L1210 cells; format: cell-based, murine; settings: 72 hr incubation
Procedure: (§1) The P815 and L1210 cell lines were obtained from American Type Tissue Culture Collection (ATCC). The cell lines were grown in Delbecco's Modified Eagle Medium (DMEM, Atlanta Biologicals) supplemented with 10% fetal bovine serum, Hepes Buffer (2 mM, Mediatech Cellgro, 25-060-Cl), L-Glutamine (2 mM, Mediatech Cellgro), and penicillin/streptomycin (50,000 units penicillin, 50,000 […], Atlanta Biologicals). Cells were maintained at 37° C. in a 5% humidified CO2 atmosphere. Cultured cells were counted using a hemocytometer and resuspended in fresh DMEM at a concentration of 8×10^5 cells/mL. This cell suspension (100 μL) was added to 96 well flat -bottom cell culture plates. At this concentration, 80,000 cells were seeded in each well. Drug solutions (dissolved in DMSO and diluted in DMEM) were added to each well (5 μL/well) resulting in final concentrations ranging from 1×10^−4 to 1×10^−12 M. Quadruplicate wells were prepared for each drug concentration. The plates were incubated for 72 hr at 37° C. in a 5% CO2 atmosphere. MTT (3-(4,5-dimethylthiazol-2-yl)-2,5-diphenyl tetrazolium bromide) was dissolved in PBS (5 mg/ml). After the indicated cell incubation period, 10 μL of this stock MTT solution was added to each well and the plates were further incubated for 4 h at 37° C. in a 5% CO2 atmosphere. […] The contents of the well were mixed thoroughly by pipetting the cell suspension up and down and the plates were allowed to sit at room temperature for 15 min in order to allow for full development of the purple color. The plates were read on a Dynatech Plate Reader, utilizing Dynex Revelation 3.2 software, with a test wavelenth of 570 nm and a reference wavelength of 630 nm.

[7] = test system: P815 mastocytoma cells; test: MTT cytotoxicity on P815 cells; format: cell-based, murine; settings: 72 hr incubation
Procedure: as §1

[8] = test system: supercoil pBR322 DNA; test: pBR322 strand nicking assay; format: biochemical
Description: When a compound is covalently bound to a purine-N3 in the minor groove of DNA, the adduct is thermally unstable. It is readily hydrolyzed to produce a DNA strand (2). Consequently, the formation of adenine-N3 (or guanine-N3) alkylation adducts can be detected by thermal conversion of supercoil pBR322 DNA (Form I) to nicked open […] DNA (Form II) as a result of the formation of single strand breaks. These two different forms of pBR322 DNA can then be separated by agarose gel electrophoresis, and the relative amounts of each form can be determined by densitometry of methylene blue stained gels (39). The supercoil form of pBR322 DNA is more compact than the open circular form, and as a result, moves further down the gel towards the positive electrode.
Solutions of the drugs dissolved in N,N-dimethylacetamide (DMA) were made at 0.10 mM concentrations, and were always stored in the refrigerator.
Tris buffer solution at pH 7.4 at 25° C. and 0.010 M was made from Tris HCl (0.661 g), Tris base (0.097 g) diluted to a 100 mL volume with distilled water. Then EDTA-Na2—2H2O (0.186 g) and KCl (3.72 g) were added to the Tris HCl solution and diluted to 500 mL volume with distilled water. A TBE solution was prepared from Carolina Lot #4020602 Electrophoresis buffer 20 times TBE diluted to a volume of three liters with deionized water. The agarose gel was prepared from agarose low EEO (0.32 g) dissolved in TBE buffer (40 mL) and heated in a microwave oven until dissolved.
The pBR322 DNA (100 μg/100 μL) from Pharmacia Biotech was in a buffer (10 mM Tris-HCl pH 7.5, and 1 mM EDTA). The DNA was prepared from plasmid DNA isolated from E. coli HB101 by the alkaline lysate procedure and was purified by Sepharcryl S-100 chromatography followed by CsCl-ethidium bromide centrifugation.
The alkylation samples were prepared by adding DNA (10 μL), Tris-EDTA KCl buffer (18 μL), and compound (2 μL) at 100 μM concentration to Eppendorf tubes. The samples were incubated at 40° C. for 40 h. The samples were removed then centrifuged for one minute. 10% SDS (sodium dodecylsulfate) (2 μL), 50% glycerol (5 μL), and bromophenol blue (2 μL) were added to the samples. The contents of the tubes were mixed with a Vortex mixer then centrifuged to consolidate the samples. The agarose gel was covered with TBE-buffer in the chamber. The samples were loaded onto the agarose gel and run at 40 V for three hours, or when the band were about three/fourths of the way down the gel.
The gel was removed and stained with methylene blue (45 min). At this time, the stained gel was placed in a water chamber overnight. The intensities of each band i.e. Form I and II were determined using densitometry.

[9] = test system: human tumor cells in hollow fibers; test: NCI hollow fiber assay, all cell lines; format: in vivo, mice
[10] = test system: panel of 60 human cancer cell lines; test: NCI in-vitro cytotoxicity screen, whole panel; format: cell-based; settings: for range of activity: 48 hour exposure
[11] = test system: L1210 leukemia; settings: carzelesin 400 μg/kg, adozelesin 100 μg/kg; cited from earlier work
[12] = Homo sapiens, K562, 1 h, read-out: IC50 1 hour exposure
[13] = 0.1 mM compound, 40° C. for 40 h

4-(2-Bromoethyl)-3-[5-(5-benzofuran-2-carboxamido)indole-2-carboxamido]phenol [Compound 2]
sequence selectivity [1]: stronger sequence selectivity than 27 | efficiency in alkylating DNA ([1]; compared with chloro-compound 1): less efficient in alkylating DNA | IC50 ([2]; K562 cells, continuous exposure (3 days), read-out: IC50 continuous exposure (3 days)): 1.6 ± 0.9 µM | IC50 ([2]; read-out: IC50 1 hour exposure, K562 cells, 1 hour exposure): 23.8 ± 9.7 µM

COc1c2c(c3cc(C(=O)N4CCc5c4c(OC)c(O)c4[nH]c(C(=O)N6CC7C[C@@]78C6=CC(=O)c6[nH]cc(C)c68)cc54)[nH]c3c1O)CCN2C(N)=O (single isomer, unassigned; (+)) [(+)-CC1065]
IC50 ([3]; L1210): 0.02 nM | IC50 values (range in words) [3]: pM range | delayed lethality / delayed toxicity [4]: delayed lethality

COC(=O)c1cc2c([nH]1)C(=O)C=C1N(C(=O)c3cc4cc(OC)c(OC)c(OC)c4[nH]3)CC3CC123 (single isomer, unassigned; (+)) [DUMSA, (+)-duocarmycin SA]
IC50 values (range in words) [3]: pM range | delayed lethality / delayed toxicity [4]: devoid of this toxic side effect

Cc1c[nH]c2c(O)cc3c(c12)[C@H](CCl)CN3C(=O)c1cc2cc(NC(=O)Nc3ccc4[nH]c(C(=O)N5C[C@@H](CCl)c6c5cc(O)c5[nH]cc(C)c65)cc4c3)ccc2[nH]1 [Bizelesin]
IC50 [3]: 0.001 nM | potency relative to (+)-CC1065 [3]: 20-30 times

CCCC(=O)Nc1cc(C(=O)Nc2cc(C(=O)Nc3ccc(O)cc3CCCl)n(C)c2)n(C)c1 [Compound 6, N-(2-(2-Chloroethyl)-4-hydroxyphenyl)-1-methyl-4-(1-methyl-4-butanamidopyrrole-2-carboxamido)pyrrole-2-carboxamide]
IC50 [2, 12]: > 30 µM

CCCC(=O)Nc1cc(C(=O)Nc2cc(C(=O)Nc3ccc(O)cc3CCBr)n(C)c2)n(C)c1 [Compound 7, N-(2-(2-Bromoethyl)-4-hydroxyphenyl)-1-methyl-4-(1-methyl-4-butanamidopyrrole-2-carboxamido)pyrrole-2-carboxamide]
IC50 ([5]; Homo sapiens, 1 h, read-out: IC50 LS174T 1 hour exposure): 237 µM | activity in words ([5]; one hour exposure): not active | IC50 [2, 12]: > 100 µM | IC50 ([2]; Homo sapiens, K562, 72 h, read-out: IC50 continuous exposure (3 days)): 3.64 ± 0.05 µM | activity in words ([2]; K562, one hour exposure): not active

Cl.Cn1cc(NC(=O)c2cccn2C)cc1C(=O)NCCCCNC(=O)CCCC(=O)Nc1ccc2oc(C(=O)Nc3cc(O)ccc3CCCl)cc2c1 [Compound 17, N-[(N-(4-Aminobutyl)-N-methylpyrrole-4-(N-methylpyrrole-2-carboxamido)-2-carboxamido)]-N-[5-(4-(2-chloroethyl)phenol-3-yl)benzofuran-2-carboxamido)]glutarodiamide hydrochloride]
IC50 [6]: 64 µM | IC50 [7]: 61 µM

Cl.Cn1cc(NC(=O)c2cccn2C)cc1C(=O)NCCCCNC(=O)CCCC(=O)Nc1ccc2oc(C(=O)Nc3cc(O)ccc3CCCl)cc2c1 [Compound 17]
alkylation of the 5′-AAAAA sequence [1]: did not alkylate | alkylation selectivity (sequence) [1]: 3′-ATTT-5′ | Form II DNA (%) [8]: quantitative

COc1cc2cc(C(=O)Nc3cc(N)ccc3CCCl)[nH]c2c(OC)c1OC [Compound 24, 4-(2-Chloroethyl)-3-(5,6,7-trimethoxyindole-2-carboxamido)aniline]
Form II DNA (%) [8, 13]: quantitative

COc1cc2cc(C(=O)Nc3cc(N)c4ccccc4c3CCCl)[nH]c2c(OC)c1OC [Compound 25, 4-(2-chloroethyl)-3-(5,6,7-trimethoxyindole-2-carboxamido)-1-naphthylamine]
cell kill [9]: cell kill observed | composite score ([9]; IP+SC): 54 | IP score ([9]; intraperitoneal fibers): 46 | SC score ([9]; subcutaneous fibers): 8 | covalent DNA AT sequence selectivity [1]: preferentially at a five consecutive A(865)AAAA sequence | Form II DNA (%) [8, 13]: quantitative | range of activity [10]: micromolar range | activity against leukemia cells [10]: none of these compounds showed much activity | activity against melanoma cells [10]: active | activity against solid tumors cells [10]: strong activity

COc1cc2cc(C(=O)Nc3cc(O)c4ccccc4c3CCCl)[nH]c2c(OC)c1OC [Compound 26, 4-(2-Chloroethyl)-3-(5,6,7-trimethoxyindole-2-carboxamido)-1-naphthol]
covalent DNA AT sequence selectivity [1]: preferentially at a five consecutive A(865)AAAA sequence | Form I DNA (%) [8, 13]: 0% | Form II DNA (%) [8, 13]: quantitative | range of activity [10]: micromolar range | activity against leukemia cells [10]: none of these compounds showed much activity | activity against melanoma cells [10]: active | activity against solid tumors cells [10]: strong activity

COc1cc2cc(C(=O)N3CC(CCl)c4c3cc(O)c3ccccc43)[nH]c2c(OC)c1OC (stereo not shown) [Compound 28, seco-CBI-trimethoxyindole, reference compound]
covalent DNA AT sequence selectivity [1]: preferentially at a five consecutive A(865)AAAA sequence

CCN(CC)c1ccc2cc(C(=O)Nc3ccc4[nH]c(C(=O)N5C[C@@H](CCl)c6c5cc(OC(=O)Nc5ccccc5)c5[nH]cc(C)c65)cc4c3)oc2c1 [carzelesin]
ILS [11]: 150±8% | survival [11]: 2/6

N-[(N-(4-Aminobutyl)-N-methylimidazole-4-(N-methylpyrrole-2-carboxamido)-2-carboxamido)]-N-[5-(4-(2-chloroethyl)phenol-3-yl)benzofuran-2-carboxamido)]glutarodiamide hydrochloride [Compound 19]
additional unique alkylation site [1]: 3′-(G)CA-5′ | alkylation of the 5′-AAAAA sequence [1]: did not alkylate | alkylation selectivity (sequence) [1]: 3′-ATTT-5′ | IC50 [6]: > 100 µM | Form II DNA (%) [8]: quantitative | IC50 [7]: > 100 µM

N-[(N-(4-Aminobutyl)-N-methylpyrrole-4-(N-methylimidazole-2-carboxamido)-2-carboxamido)]-N-[5-(4-(2-chloroethyl)phenol-3-yl)benzofuran-2-carboxamido)]glutarodiamide hydrochloride [Compound 18]
additional unique alkylation site [1]: 3′-GCAACG-5′ | alkylation of the 5′-AAAAA sequence [1]: did not alkylate | alkylation selectivity (sequence) [1]: 3′-ATTT-5′ | IC50 [6]: > 100 µM | Form II DNA (%) [8]: quantitative | IC50 [7]: > 100 µM
